According to ChEMBL document CHEMBL1156829 (Proc Natl Acad Sci U S A, 2008):

What was measured:
[1] = tested on: Plasmodium falciparum; assay: NOVARTIS: Inhibition of Plasmodium falciparum 3D7 (drug-susceptible) proliferation in erythrocyte-based infection assay; type: functional, organism-based; conditions: Plasmodium falciparum, 3D7
[2] = NOVARTIS: Cytotoxicity against human hepatocellular carcinoma cell line (Huh7); type: toxicity, cell-based, Huh-7; conditions: Huh7 cells (hepatocellular carcinoma cell line)
[3] = tested on: Plasmodium falciparum; assay: NOVARTIS: Inhibition of Plasmodium falciparum W2 (drug-resistant) proliferation in erythrocyte-based infection assay; type: functional, organism-based; conditions: Plasmodium falciparum, W2; read-out: EC50

Row | Compound | EC50 [1] | CC50 [2] | EC50 [3]
1 | CN(C)c1cc(NC(=O)Nc2ccccc2)c2ccccc2n1 | 148 nM | 6780 nM | 332 nM
2 | CC[C@@H]1CN2CC[C@H]1C[C@H]2[C@H](O)c1ccnc2ccc(OC)cc12 | 103 nM | > 6250 nM | 298 nM
3 | Cc1cc(Nc2cccc(C(F)(F)F)c2)nc(N)n1 | 676 nM | 39600 nM | 1860 nM
4 | COc1ccc(CCN2C(=O)c3ccc(Oc4ccc(NC(=O)c5oc(=O)c6ccccc6c5-c5ccccc5)cc4)cc3C2=O)cc1OC | > 12500 nM | > 100000 nM | 4800 nM
5 | CCN1C=CC(=Cc2ccc3ccccc3[n+]2C)C=C1 | 453 nM | 20000 nM | 976 nM
6 | OCCNc1nc(Nc2ccc(Br)cc2)nc2ccccc12 | 490 nM | 12000 nM | 566 nM
7 | Oc1cccc(Nc2nc(NCC3CCCO3)c3ccccc3n2)c1 (stereo not drawn) | 266 nM | 6980 nM | 341 nM
8 | COc1ccc2nc(-c3ccccc3)cc(NCCN(C)C)c2c1 | 171 nM | > 10000 nM | 478 nM
9 | COc1ccccc1C(=O)N1CCN(Cc2ccc3ccccc3c2)CC1 | > 12500 nM | > 100000 nM | 4860 nM
10 | O=C(CN1C(=O)c2ccccc2C1=O)Nc1cc(Cl)ccc1C(=O)O | > 1250 nM | > 10000 nM | 486 nM
11 | COc1ccccc1CN1CCC(S(=O)(=O)c2ccccc2)CC1 | 349 nM | 1080 nM | 52.3 nM
12 | CN(C)C(=O)C1C2NC(=S)N(c3ccccc3)C1(C)Oc1ccccc12 (stereo not drawn) | 1750 nM | > 10000 nM | 483 nM
13 | O=C(Cn1ccc(=NCc2ccccc2)cc1)c1ccc(Cl)cc1 | 296 nM | 12800 nM | 602 nM
14 | CC(C)CC(N)C(=O)N1CCc2nc(Cc3ccc(F)cc3Cl)sc2C1 (stereo not drawn) | > 1250 nM | > 10000 nM | 471 nM
15 | O=C(Nc1ccccc1C(=O)O)c1cccc(NC(=O)c2ccco2)c1 | > 947 nM | > 10000 nM | 471 nM
16 | COc1ccc(NC(=O)c2cccc([N+](=O)[O-])c2C)cc1 | > 3550 nM | > 100000 nM | 4770 nM
17 | CCN1CCC(Nc2ccnc3cc4ccccc4cc23)CC1 | 81.5 nM | > 10000 nM | 477 nM
18 | Cc1ccccc1-c1cnnc(NCC2CCCCO2)n1 (stereo not drawn) | 11100 nM | > 100000 nM | 4820 nM
19 | CCC(c1nc2ccccc2c(=O)n1CCOC)N1CCNCC1 (stereo not drawn) | 369 nM | > 10000 nM | > 469 nM

Row | Compound | EC50 [1] | CC50 [2] | EC50 [3]
20 | CN1CCc2c(C#N)c(N3CCCC3)nc(N3CCCC3)c2C1 | 2120 nM | > 100000 nM | 4820 nM
21 | CCCCCN(C(=O)c1cccc(F)c1)C(CC)c1nc2ccccc2c(=O)n1-c1ccc(Cl)cc1C (stereo not drawn) | 1460 nM | > 10000 nM | 480 nM
22 | CCOC(=O)C1CSC(c2ccc(C(F)(F)F)cc2)N1C(=O)/C=C/c1ccccc1 (stereo not drawn) | > 1340 nM | > 7950 nM | 381 nM
23 | COc1ccc(NC(=O)c2cc3cc(C4(O)CCN(CC(C)(C)C)CC4)ccc3o2)cc1OC | > 1250 nM | > 10000 nM | 480 nM
24 | COc1ccc(/C=C/c2nc(=O)c3ccccc3o2)cc1 | 1240 nM | > 10000 nM | 480 nM
25 | Cc1ccccc1C(=O)NCCCCNc1ccnc2cc(Cl)ccc12 | 450 nM | > 10000 nM | 479 nM
26 | O=C(NCCCCNc1ccnc2cc(Cl)ccc12)C1CCCC1 | 409 nM | > 10000 nM | 485 nM
27 | COc1ccc(S(=O)(=O)NCCCCNc2ccnc3cc(Cl)ccc23)cc1 | 345 nM | > 10000 nM | 484 nM
28 | O=C(NCCCCNc1ccnc2cc(Cl)ccc12)c1ccccc1Br | 468 nM | > 10000 nM | 494 nM
29 | COc1ccccc1NC(=O)c1cnn(-c2ccccc2)c1-n1cccc1 | > 119 nM | > 10000 nM | 494 nM
30 | CN1CCN(c2cc(-c3ccncc3)nc(-c3cccnc3)n2)CC1 | 511 nM | > 10000 nM | 494 nM
31 | CCOC(=O)c1cnc2c(OC)cccc2c1Nc1ccc(OC)c(OC)c1 | 827 nM | > 10000 nM | 493 nM
32 | O=[N+]([O-])c1cc(C(F)(F)F)c(Cl)c([N+](=O)[O-])c1Nc1cc(C(F)(F)F)ccc1Cl | 565 nM | 6130 nM | 301 nM
33 | CCOc1ccc(N=C2NC(=O)SC2=C2C(=O)Nc3ccc(Br)cc32)cc1 | > 12500 nM | > 100000 nM | 4910 nM
34 | c1ccc(CN2CCC(Nc3ncnc4cc(-c5ccccc5)sc34)CC2)cc1 | 2060 nM | > 100000 nM | 4890 nM
35 | COCCNCCN1CCN(c2ccc(C)cc2)C[C@@H]1c1ccccc1 | 436 nM | 11200 nM | 548 nM
36 | Cc1ccc(N=C2NC(=O)/C(=C\c3cc(C)n(-c4cccc([N+](=O)[O-])c4)c3C)S2)cc1 | 442 nM | > 10000 nM | 488 nM
37 | CN(C)c1cc[n+](Cc2ccccc2)cc1 | 2420 nM | > 100000 nM | > 4870 nM
38 | CN(C)c1ccc(/C=C2\SC(=Nc3ccc(F)cc3)NC2=O)cc1 | 361 nM | > 10000 nM | 493 nM

Row | Compound | EC50 [1] | CC50 [2] | EC50 [3]
39 | CCOC(=O)C1=C(C)N=c2sc(=Cc3c4ccccc4cc4ccccc34)c(=O)n2C1c1cc(OC)ccc1OC (stereo not drawn) | > 12500 nM | > 100000 nM | 4770 nM
40 | CCCCOC(=O)Cc1ccc(N)cc1 | 462 nM | 5970 nM | 284 nM
41 | COc1ccc(CN(Cc2cc3cccc(C)c3[nH]c2=O)C(=S)NC2CCCCC2)cc1 | > 1250 nM | > 10000 nM | 487 nM
42 | O=C(Nc1ccc(Oc2cccc(Oc3ccc(NC(=O)c4ccc(Br)o4)cc3)c2)cc1)c1ccc(Br)o1 | 4420 nM | > 100000 nM | 4710 nM
43 | O=C(NC1CC1)C1CCN(S(=O)(=O)c2ccc(Cl)cc2)CC1 | 5000 nM | > 100000 nM | 4720 nM
44 | Cc1ccc(-c2cc(-c3cc(Cl)ccc3O)on2)cc1 | > 798 nM | > 10000 nM | 472 nM
45 | Cc1ccc2nc3c(c(Nc4ccc(N(C)C)cc4)c2c1)CCC3 | 1790 nM | 19800 nM | 950 nM
46 | O=C(c1ccc([N+](=O)[O-])cc1[N+](=O)[O-])N1CCCCC1 | > 12500 nM | > 100000 nM | 4860 nM
47 | Cc1cc(N2CCCC2)nc2ccc(NC(=S)NCCCN3CCc4ccccc4C3)cc12 | 263 nM | 19100 nM | 924 nM
48 | COc1cc(OC)nc(CSc2ccc(NC(=O)CCl)cc2)n1 | 518 nM | > 10000 nM | 479 nM
49 | O=C(Nc1ccc(N2CCCCC2)cc1)N1CCc2nc[nH]c2C1c1ccc(Cl)cc1 (stereo not drawn) | 640 nM | > 5040 nM | 239 nM
50 | Fc1ccc(CSc2nc3cccnc3[nH]2)cc1 | 3620 nM | > 100000 nM | 4800 nM
51 | c1ccc(N=c2n(-c3ccccc3)c(=Nc3ccccc3)n(-c3ccccc3)c(=Nc3ccccc3)n2-c2ccccc2)cc1 | > 1350 nM | > 10000 nM | > 468 nM
52 | COc1cc(C(=O)Nc2cnc3ccccc3c2)ccc1-n1cnnn1 | 3980 nM | > 100000 nM | 4750 nM
53 | COc1cc(CN2CCN(c3ccccn3)CC2)cc(I)c1O | > 9900 nM | > 100000 nM | 4890 nM
54 | C=CCOc1ccccc1CN1CCN(c2ccccn2)CC1 | > 9990 nM | > 98500 nM | 4850 nM
55 | COc1cc(OC)cc(C(=O)N2CCC(C(=O)Nc3cccc4ccccc34)CC2)c1 | > 481 nM | > 10000 nM | 485 nM
56 | O=C(CCCCCN1C(=O)c2cccc3cccc(c23)C1=O)NO | 563 nM | 3320 nM | 164 nM
